# Assay results from patent US20110229878A1, “HUMAN CONSENSUS SODIUM-IODIDE SYMPORTER REPRESSOR (NIS-REPRESSOR) BINDING SITE” (priority 2010, published 2011).
# Experiments:
# chromatin compaction = settings: previous genomic DNase I digestion studies (Li et al. 2007); cited from earlier work
# NIS-repressor = assay: EMSA pattern using KAK1 nuclear extract after epigenetic agents; format: binding, human
# Experimental: EMSA: EMSA is carried out as follows: 3 μL nuclear extract, 1 μL end-labeled probe, 1 μL Poly(dI-dC)-Poly(dI-dC) (0.01 U/μL in 100 mM KCl, 20 mM HEPES, pH 8.0), 1 μL Salmon sperm DNA (500 ng/μL in nuclease-free water), 5 μL 4×EMSA buffer (400 mM KCl, 80 mM HEPES, 0.8 mM EDTA, 80% glycerol, 0.5 mM DTT) are mixed and distilled nuclease-free water is added to bring the reaction mix to 18 μL. The mixture is incubated on ice for 30 minutes, followed by addition of 2 μL of loading buffer (1×EMSA buffer, 0.25% Bromophenol Blue). A 7% non-denaturing PAGE gel is pre-run in 0.5×TBE (5.4 g/L Tris base, 2.75 g/L boric acid, 1 mM EDTA, pH 8.) for 30 minutes at 100V. The entire 20 μL EMSA reaction is loaded into one well of the polyacrylamide gel and run at 100V until the Bromophenol Blue dye has migrated to the end of the gel. The gel is dried on DEAE paper using a standard gel dryer and the dried gel is exposed to X-ray film. A retarded signal relative to free end-labeled probe indicates athe presence of a positive protein-probe interaction complex. When un-labeled DNA probe is added in the EMSA reaction mixture, loss of EMSA signal indicates the signal is probe-specific.
# NIS transcription = settings: Venkataraman et al. 1999; cited from earlier work
# [1] = tested on: hNIS transcription in KAK1 cells; assay: Endogenous hNIS transcription in KAK1 cells; format: cell-based, human
# Excerpt: (§1) Furthermore. […] PJ34 inhibition of PARP1 enzymatic activity may compromise the assembly, stability, or activity of the NIS-repressor protein complex.
# NIS promoter constructs = assay: Luciferase activity from NIS promoter constructs; format: cell-based, human
# Excerpt: as §1
# [2] = tested on: hNIS transcription in Cal-62 cells; assay: Endogenous hNIS transcription in Cal-62 cells; format: cell-based, human
# Excerpt: as §1
# hNIS = assay: Endogenous hNIS mRNA / transcription in thyroid cancer cells (cell line not given); format: cell-based, human
# Excerpt: Multiple cellular and nuclear factors are reported to be important for hNIS transcription, including: TSH (thyrotropin)/receptor (TSHr) (Riedel, et al. 2001), TTF-1 (Schmitt, et al. 2001), and Pax-8 (Pasca di Magliano, et al. 2000), but there are no clear examples of repressing transcription factors in thyroid cells or thyroid carcinomas. […] We also characterized NIS-repressor and investigated the identities of its components and mechanisms of its activity. This involved defining NRBS-P to a narrower region of hNIS promoter and utilizing it to probe nuclear extract, analyzing the probe-bound proteins with liquid chromatography coupled with tandem mass spectrometry (LC/MS/MS), to characterize NIS-repressor components. […] Pharmacological inhibition of PARP-1 activity with PJ34, a PARP-1 inhibitor, stimulated endogenous hNIS mRNA levels, providing evidence that PARP-1 acts as a negative regulatory factor for hNIS transcription and is a likely component of the NIS-repressor complex.
# In summary, a second core sequence in the human sodium-iodine symporter (hNIS) promoter, NRBS-D, which is a binding site for a trans-active transcriptional repressor, NIS-repressor has been defined. […] A known inhibitor of PARP-1 enzymatic activity, PJ34, causes increased endogenous transcription of hNIS in genotypically verified thyroid cancer cells.
# [3] = tested on: NIS-repressor (KAK1 nuclear extract); assay: EMSA competition against radiolabeled Probe-A (NRBS-P), KAK1 nuclear extract; format: binding, human; settings: 60× unlabeled annealed double-stranded oligonucleotide
# Excerpt: FIGS. 2A and 2B show the results of EMSA analysis followed by […] to define the core sequence for NRBS-D and cross competition of NRBS-D with NRBS-P. FIG. 2A depicts EMSA using KAK1 nuclear extract probed with radiolabeled SHIFT-4 containing NRBS-D in lanes 2 to 15. Unlabeled (30×) SHIFT-4, 4.1, 4.4, 4.2, 4.3, 4.5, 4.6, 4.7, and Probe-A were included in EMSA reactions in lanes 3, 4, 5, 6, 7, 11, 12, 13, and 15, respectively. The unlabeled (60×) annealed double-stranded oligonucleotides ds-411, ds-412, ds-413, and Comp-1 were added to the EMSA reactions in lanes 8, 9, 10, and 14, respectively. Lane 2 had no additional unlabeled competitor, and lane 1 contained radiolabeled SHIFT-4 probe only. In FIG. 2B, KAK1 nuclear extract was probed with radiolabeled Probe-A. The unlabeled 30× Probe-A, 60× annealed double-stranded Comp-1, and 60× annealed double-stranded ds-414 were added in EMSA reactions in lane 3, 4, and 5, respectively. The arrows point to the probe-specific bands.
# EMSA: EMSA is carried out as follows: 3 μL nuclear extract, 1 μL end-labeled probe, 1 μL Poly(dI-dC)-Poly(dI-dC) (0.01 U/μL in 100 mM KCl, 20 mM HEPES, pH 8.0), 1 μL Salmon sperm DNA (500 ng/μL in nuclease-free water), 5 μL 4×EMSA buffer (400 mM KCl, 80 mM HEPES, 0.8 mM EDTA, 80% glycerol, 0.5 mM DTT) are mixed and distilled nuclease-free water is added to bring the reaction mix to 18 μL. […]
Molecule,effect on chromatin compaction (chromatin compaction),effect on EMSA pattern (NIS-repressor),NIS transcription (NIS transcription),further results
Nc1ncn([C@@H]2O[C@H](CO)[C@@H](O)[C@H]2O)c(=O)n1 [5-azacytidine],failed to demonstrate any effect,did not alter,restore,
CN(C)CC(=O)Nc1ccc2[nH]c(=O)c3ccccc3c2c1 [PJ34],,,,endogenous hNIS transcription [1]: stimulated; luciferase activity from NIS promoter constructs (NIS promoter constructs): effectively stimulated; endogenous hNIS transcription [2]: stimulated; endogenous transcription of hNIS (hNIS; genotypically verified thyroid cancer cells): increased; endogenous hNIS mRNA levels (hNIS; pharmacological inhibition of PARP-1 activity): stimulated
CCCC(=O)[O-].[Na+] [sodium butyrate],failed to demonstrate any effect,did not alter,restore,
"ds-414: annealed double-stranded oligonucleotide 5′-ccttgttacagatggggaaactaaggccca-3′, −987 to −958 (SEQ ID NO.: 6) (sense CCTTGTTACAGATGGGGAAACTAAGGCCCA; annealed double-stranded unlabeled competitor, further chemistry not given here)",,,,competition against radiolabeled Probe-A in EMSA [3]: strong competition
